Common to all, as to type: biochemical
Assay [1] deals with T1, PKD1 (Homo sapiens, UniProt Q15139).
T1 construct: GST; purchased Enzo Life sciences (Farmingdale, NY)
T1 sequence (Q15139 1-912): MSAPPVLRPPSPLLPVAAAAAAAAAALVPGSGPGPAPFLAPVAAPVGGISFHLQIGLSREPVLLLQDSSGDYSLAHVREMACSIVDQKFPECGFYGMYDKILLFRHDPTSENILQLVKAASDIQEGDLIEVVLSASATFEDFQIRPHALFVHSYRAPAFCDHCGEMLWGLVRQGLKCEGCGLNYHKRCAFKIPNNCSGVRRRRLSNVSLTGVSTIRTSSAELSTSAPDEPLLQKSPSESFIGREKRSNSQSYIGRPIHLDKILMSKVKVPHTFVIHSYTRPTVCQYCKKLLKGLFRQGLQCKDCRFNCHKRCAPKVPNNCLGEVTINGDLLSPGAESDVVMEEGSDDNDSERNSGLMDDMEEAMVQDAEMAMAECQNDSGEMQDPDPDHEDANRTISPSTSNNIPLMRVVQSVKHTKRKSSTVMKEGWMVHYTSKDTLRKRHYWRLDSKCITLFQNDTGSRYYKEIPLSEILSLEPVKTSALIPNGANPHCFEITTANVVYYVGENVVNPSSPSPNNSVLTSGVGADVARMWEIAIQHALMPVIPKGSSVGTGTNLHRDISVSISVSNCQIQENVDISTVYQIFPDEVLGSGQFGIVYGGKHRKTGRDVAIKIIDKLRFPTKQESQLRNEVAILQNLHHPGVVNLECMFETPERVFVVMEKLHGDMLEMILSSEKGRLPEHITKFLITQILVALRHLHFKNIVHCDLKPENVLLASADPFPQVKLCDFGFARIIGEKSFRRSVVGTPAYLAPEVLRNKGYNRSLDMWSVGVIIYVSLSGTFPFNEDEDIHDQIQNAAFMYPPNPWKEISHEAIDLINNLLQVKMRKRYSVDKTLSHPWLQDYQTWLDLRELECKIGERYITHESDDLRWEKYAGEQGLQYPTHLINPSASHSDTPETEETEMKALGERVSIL
Nature of the assay: In vitro radiometric PKD1 screening assay at 1 µM. The protocol: Phosphorylation of HDAC5 was detected in a kinase reaction having 1 µCi [γ-^32P] […] The reaction was incubated at 30°C for 10 minutes and 25 µL of the reaction was spotted on Whatman P81 filter paper. The filter paper was washed 3 times in 0.5% phosphoric acid, air dried and counted using Beckman LS6500 multipurpose scintillation counter. Percent PKD1 inhibition was graphed using GraphPad Prism software 5.0.

Another assay addresses T2, Recombinant human PKD3 (Homo sapiens, UniProt O94806).
T2 sequence (O94806 1-890): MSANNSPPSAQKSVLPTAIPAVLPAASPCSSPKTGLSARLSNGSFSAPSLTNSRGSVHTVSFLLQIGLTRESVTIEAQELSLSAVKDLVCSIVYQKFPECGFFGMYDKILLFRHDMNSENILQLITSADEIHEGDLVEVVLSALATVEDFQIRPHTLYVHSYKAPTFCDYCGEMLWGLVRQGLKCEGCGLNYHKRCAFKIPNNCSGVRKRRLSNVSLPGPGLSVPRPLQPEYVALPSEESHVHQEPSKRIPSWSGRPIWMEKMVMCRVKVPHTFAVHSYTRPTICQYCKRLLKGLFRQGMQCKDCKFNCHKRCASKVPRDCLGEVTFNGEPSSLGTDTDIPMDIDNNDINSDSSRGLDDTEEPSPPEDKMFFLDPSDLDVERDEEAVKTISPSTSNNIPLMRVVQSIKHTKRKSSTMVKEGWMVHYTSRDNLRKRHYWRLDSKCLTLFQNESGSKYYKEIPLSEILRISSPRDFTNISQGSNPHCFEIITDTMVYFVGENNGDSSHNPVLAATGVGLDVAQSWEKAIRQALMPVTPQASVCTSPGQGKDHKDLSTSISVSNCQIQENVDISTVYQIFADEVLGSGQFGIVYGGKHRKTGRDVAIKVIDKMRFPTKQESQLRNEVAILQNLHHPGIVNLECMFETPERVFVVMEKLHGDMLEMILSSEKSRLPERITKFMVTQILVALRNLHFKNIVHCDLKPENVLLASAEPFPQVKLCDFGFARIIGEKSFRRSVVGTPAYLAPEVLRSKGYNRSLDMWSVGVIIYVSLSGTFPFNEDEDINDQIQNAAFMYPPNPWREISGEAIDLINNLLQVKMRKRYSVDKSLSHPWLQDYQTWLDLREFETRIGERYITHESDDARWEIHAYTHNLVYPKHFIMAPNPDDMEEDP
Nature of the assay: Radiometric PKD kinase assay, 10-point IC50.

In assay [2] the target is T1, PKD1. Nature of the assay: ATP competition, Lineweaver-Burk analysis of PKD1 kinase activity. Conditions: Lineweaver-Burk plots, increasing ATP.
Description: Lineweaver-Burk plots were generated by plotting the reciprocal of reaction velocities (1/v) against the reciprocal of ATP concentrations (1/[ATP]) at different compound concentrations. The points were fitted by linear regression.
Data presented were representative of three independent experiments.
A further assay addresses T3, PKCα (Homo sapiens, UniProt P17252).
T3 construct: purchased SignalChem (Richmond, BC, Canada)
Nature of the assay: In vitro radiometric PKC kinase assay. How it is done: (§1) The PKC kinase assay was carried out by co-incubating 1 µCi [γ-^32P]ATP, 20 µM ATP, 50 ng of purified PKCα or PKCδ and 5 µg of myelin basic protein 4–14, 0.25 mg/mL bovine serum albumin, 0.1 mg/mL phosphatidylcholine/phosphatidylserine (80/20%) (1 µM), 1 µM phorbol dibutyrate in 50 µL of kinase buffer containing 50 mM Tris-HCl, pH 7.5, 4 mM MgCl2 and 10 mM β-mercaptoethanol. For the CAMK assay, 50 ng of CAMKIIα and 2 µg syntide-2 substrate in 50 µL kinase buffer were incubated with 0.1 mM MgCl2, 1 µCi of [γ-^32P] ATP, 70 µM ATP. 0.5 mM CaCl2 and 30 ng/µL calmodulin were preincubated for 15 min on ice and then added in the kinase reaction. The reactions were incubated at 30°C for 10 min and 25 µL of the reaction was spotted on Whatman P81 filter paper. The filter paper was washed 3 times in 0.5% phosphoric acid, air dried and counted using Beckman LS6500 multipurpose scintillation counter.

For another assay, the target named is T4, PKCδ (Homo sapiens, UniProt Q05655).
T4 construct: purchased SignalChem (Richmond, BC, Canada)
Nature of the assay: In vitro radiometric PKC kinase assay. How it is done: as §1

Another assay concerns the target T5, CAMKIIα (Homo sapiens, UniProt Q9UQM7).
T5 construct: purchased SignalChem (Richmond, BC, Canada)
Nature of the assay: In vitro radiometric CAMK kinase assay. As to conditions: up to 10 µM. How it is done:
as §1

From article PMC3781056, “New Pyrazolopyrimidine Inhibitors of Protein Kinase D as Potent Anticancer Agents for Prostate Cancer Cells” (PLoS ONE, 2013) come the findings set out here.

The structures appear in SMILES notation. Entries after “also recorded” stand apart in the source; their conditions may differ. Read-outs that look alike come from different tables or passages of the source. Some results are limits rather than exact numbers.

T4 sequence (Q05655 whole entry): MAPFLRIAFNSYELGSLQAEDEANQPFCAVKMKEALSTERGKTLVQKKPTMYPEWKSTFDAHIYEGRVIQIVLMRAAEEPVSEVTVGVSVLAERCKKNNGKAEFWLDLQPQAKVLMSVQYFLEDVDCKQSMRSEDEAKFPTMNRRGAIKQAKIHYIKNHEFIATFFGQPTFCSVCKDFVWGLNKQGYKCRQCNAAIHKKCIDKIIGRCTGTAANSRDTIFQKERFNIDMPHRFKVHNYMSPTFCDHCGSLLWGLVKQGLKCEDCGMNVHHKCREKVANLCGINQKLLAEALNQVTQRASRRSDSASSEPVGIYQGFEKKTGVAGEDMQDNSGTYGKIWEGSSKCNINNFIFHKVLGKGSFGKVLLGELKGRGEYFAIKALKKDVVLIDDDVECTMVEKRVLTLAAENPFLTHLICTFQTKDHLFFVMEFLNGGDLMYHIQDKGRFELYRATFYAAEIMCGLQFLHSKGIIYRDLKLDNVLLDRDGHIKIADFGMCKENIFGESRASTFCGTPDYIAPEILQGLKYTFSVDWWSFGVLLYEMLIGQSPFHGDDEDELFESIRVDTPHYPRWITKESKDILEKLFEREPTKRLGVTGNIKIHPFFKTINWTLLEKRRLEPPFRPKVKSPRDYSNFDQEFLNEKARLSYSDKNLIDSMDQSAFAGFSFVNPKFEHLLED
Protocol for Recombinant human PKD3: Recombinant human PKD1, 2, or 3 proteins were incubated in a mixture containing a peptide substrate derived from a PKD substrate, HDAC-5, and 10 different concentrations of the two compounds.
The IC50 values were calculated as the mean ±SEM of at least three independent experiments with triplicate determinations at each concentration of drug in each experiment. The data were plotted as a function of drug concentration and a representative graph is shown.

The inhibition is the percentage by which the read-out fell short of the control. One may read the IC50 as the concentration that inhibits the measured activity by half. In the case of `CC(C)(C)n1nc(-c2cccc3ccccc23)c2c(N)ncnc21` [Compound 1-NA-PP1, 1-(t-Butyl)-3-(naphthalen-1-yl)-1H-pyrazolo[3,4-d]pyrimidin-4-amine], the inhibition at 1 µM came to 77% at PKD1 [1] (read-out: % PKD1 Inhibition) and 80% on PKD1 [1] (read-out: inhibition of PKD1 activity). Further, the IC50 on Recombinant human PKD3 was 109 nM; on Recombinant human PKD3 (PKD3 IC50, value printed in the figure, representative graph), 104 nM. For the same compound, on PKD1 [2], the “mode of PKD1 inhibition with respect to ATP” value was “ATP-competitive inhibitors”. Also, the “inhibition of PKCα, in words” value at PKCα (0.1, 1 and 10 µM) is “No significant inhibitory activities; also recorded: did not significantly inhibit”. Further, the “inhibition of PKCδ, in words” value at PKCδ (0.1, 1 and 10 µM) is “No significant inhibitory activities; also recorded: did not significantly inhibit”. Further, the “inhibition of CAMKIIα, in words” value on CAMKIIα was “little activity; also recorded: did not significantly inhibit”.
Regarding `O=C(c1ccc(Nc2nccc(-c3cc4ccccc4s3)n2)cc1)N1CCC(N2CCCC2)CC1` [IKK-16, reference compound], the “% PKD1 Inhibition” value at PKD1 [1] (1 µM, targeted kinase inhibitor library screen, relative to DMSO) worked out at 67%. The IC50 at Recombinant human PKD3 (mean ± SEM, read-out: IC50 PKD3) amounted to 99.7 nM; at Recombinant human PKD3 (value in the figure, representative graph, read-out: PKD3 IC50), 97 nM. In addition, at PKD1 [2], the “mode of PKD1 inhibition with respect to ATP” value is “ATP-competitive inhibitors”. The “inhibition of PKCα” value against PKCα (10 µM) was above 50%. The “inhibition of PKCδ” value at PKCδ (10 µM) is recorded as above 50%. The “inhibition of CAMKIIα, in words” value against CAMKIIα is reported as “almost completely abrogated its activity”.
